Assays:
THP-1 cells = assay: Cytotoxicity in the THP-1 NFκB assay; assay type: cell-based, human; details: at active concentrations
aortic ring = assay: Rat aortic ring assay (contraction to noradrenaline); details: 1 μg/ml, p=0.045, read-out: Inhibition of the contractile response (logEC50) to noradrenaline compared with vehicle alone
Method: Male Sprague-Dawley rats (250±50 g) were euthanased with 80% CO2 and 20% O2. The thoracic aorta was excised and quickly mounted in organ-baths as described (Chin-Dusting et al. 2001). Full concentration-contractile curves were obtained to noradrenaline (0.1 nM-10 mM) with and without test compounds delivered at a concentration of 1 μg/ml. Experiments were repeated in n=5 different rings from 5 different animals. Only one compound at any one concentration was tested on any one ring from any one animal. Sigmoidal dose response curves were fitted for the data and the logEC50 calculated (Prism 4, GraphPad Software). The difference in these values between the presence and absence of test compound was calculated using a two-tailed paired t test. The effects of β-oestrodiol and vehicle alone were examined as a positive and negative control respectively.

[1] = test system: adjuvant-induced arthritis; assay: Rat adjuvant-induced arthritis model; assay type: in vivo
Method: Male Dark Agouti (DA) strain (DA.CD45.1) rats were fed with either compound (1)-treated feed or placebo-treated feed for seven days prior to the injection of Complete Freund's adjuvant (0.1 ml) into the base of the tail. The treated feeds were continued throughout the experiment. Arthritis, which became evident at Day 8 was subjectively scored each day by an operator blinded to the identity of treatments and using a scoring system as follows: • 0 (no evidence of arthritis); • 1 (1 or 2 red, swollen joints but no other swelling); • 2 (carpus or tarsus swollen or more than 2 small joints swollen); • 3 (some red swollen joints and carpus or tarsus swollen, but not global swelling); • 4 (severe global swelling of the entire paw). Therefore, the disease score for individual rats ranged between 0 and 16. Rats (n=8 per group) were killed on Day 12. Data were analysed using a two way ANOVA (Prism 4 for Windows, GraphPad Software Inc).

| SMILES | Cytotoxicity (THP-1 cells) | inhibition at 1 µg/mL (aortic ring) [%] | Joint score (mean ± SD) ([1]; Day 7, treated feed, score 0-16) | Joint score (mean ± SD) ([1]; Day 8, placebo 0.38 ± 0.52) | Joint score (mean ± SD) ([1]; Day 9, placebo 4.75 ± 1.28) | Joint score (mean ± SD) ([1]; Day 10, placebo 7.75 ± 1.39) | Joint score (mean ± SD) ([1]; Day 11, placebo 11.75 ± 1.04) | Joint score (mean ± SD) ([1]; Day 12, placebo 14.13 ± 1.46) | Arthritis score compared with placebo feed (in words) ([1]; two way ANOVA) | melting point |
| --- | --- | --- | --- | --- | --- | --- | --- | --- | --- | --- |
| CN(C)Cc1cc2c(cc1O)OCC(c1ccc(O)cc1)=C2 [Compound (1)] | absence of cytotoxicity | 23 | 0 | 0.5 ± 0.53 | 3.25 ± 1.58 | 6.25 ± 1.49 | 9.25 ± 1.28 | 12.75 ± 2.92 | statistically significant (p=0.008) reduction in arthritis score |  |
| O=C(O)C1CCCN1Cc1cc2c(cc1O)OCC(c1ccc(O)cc1)=C2 (stereo not shown) [Compound (3)] |  |  |  |  |  |  |  |  |  | 240 °C (dec.) |

From patent publication US20120003270A1, “6-SUBSTITUTED ISOFLAVONOID COMPOUNDS AND USES THEREOF” (priority 2008, published 2012)
